Source: the supplement of paper PMC10307832

Key:
Experiment in all cases: relative viability (nuclei count vs DMSO), 5 days (fraction); higher = more cells survive
[1] = tested on: HCC-44
Outline: (§1)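 Medians of duplicate plates are given as relative viability. That measure is the nuclei count in treated wells divided by the count in vehicle wells. Counts were taken on 4× images of lung cancer cell lines in 1536-well plates, 5 days after pin-tool dosing the day after seeding with one drug alone or a fixed anchor-drug dose plus five library-drug doses (not always all listed) in √10 steps.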

[2] = tested on: SW 1573
Outline: as §1

[3] = tested on: H3255
Outline: as §1

[4] = tested on: NCI-H596
Outline: as §1

[5] = tested on: NCI-H1793
Outline: as §1

[6] = tested on: LU99A
Outline: as §1

[7] = tested on: COR-L23
Outline: as §1

[8] = tested on: LK-2
Outline: as §1

[9] = tested on: PC-14
Outline: as §1

[10] = tested on: NCI-H460
Outline: as §1

[11] = tested on: NCI-H1650
Outline: as §1

[12] = tested on: 201T
Outline: as §1

[13] = tested on: NCI-H727
Outline: as §1

[14] = tested on: NCI-H2347
Outline: as §1

[15] = tested on: NCI-H23
Outline: as §1

[16] = tested on: NCI-H2228
Outline: as §1

[17] = tested on: LC-2-ad
Outline: as §1

[18] = tested on: A-427
Outline: as §1

[19] = tested on: LCLC-97TM1
Outline: as §1

COc1cc2nccc(Oc3ccc(NC(=O)Nc4cc(C)on4)c(Cl)c3)c2cc1OC [Tivozanib] + CC1(C)CCC(c2ccc(Cl)cc2)=C(CN2CCN(c3ccc(C(=O)NS(=O)(=O)c4ccc(N[C@H](CCN5CCOCC5)CSc5ccccc5)c(S(=O)(=O)C(F)(F)F)c4)cc3)CC2)C1 [Navitoclax] (partner 0.5 µM)
relative viability ([1]; first compound 0.005 µM): 1.01
relative viability ([1]; first compound 0.01581 µM): 0.986
relative viability ([1]; first compound 0.05 µM): 1.01
relative viability ([1]; first compound 0.1581 µM): 0.962
relative viability ([1]; first compound 0.5 µM): 0.944
relative viability ([2]; first compound 0.005 µM): 0.92
relative viability ([2]; first compound 0.01581 µM): 0.911
relative viability ([2]; first compound 0.05 µM): 0.949
relative viability ([2]; first compound 0.1581 µM): 0.777
relative viability ([2]; first compound 0.5 µM): 0.983
relative viability ([3]; first compound 0.005 µM): 0.446
relative viability ([3]; first compound 0.01581 µM): 0.482
relative viability ([3]; first compound 0.05 µM): 0.495
relative viability ([3]; first compound 0.1581 µM): 0.328
relative viability ([3]; first compound 0.5 µM): 0.516
relative viability ([4]; first compound 0.005 µM): 0.94
relative viability ([4]; first compound 0.01581 µM): 1.07
relative viability ([4]; first compound 0.05 µM): 0.936
relative viability ([4]; first compound 0.1581 µM): 0.911
relative viability ([4]; first compound 0.5 µM): 0.922
relative viability ([5]; first compound 0.005 µM): 0.351
relative viability ([5]; first compound 0.01581 µM): 0.466
relative viability ([5]; first compound 0.05 µM): 0.413
relative viability ([5]; first compound 0.5 µM): 0.438
relative viability ([6]; first compound 0.005 µM): 0.795
relative viability ([6]; first compound 0.01581 µM): 0.749
relative viability ([6]; first compound 0.05 µM): 0.849
relative viability ([6]; first compound 0.5 µM): 0.794
relative viability ([7]; first compound 0.005 µM): 0.955
relative viability ([7]; first compound 0.01581 µM): 0.998
relative viability ([7]; first compound 0.05 µM): 1.04
relative viability ([7]; first compound 0.1581 µM): 0.935
relative viability ([7]; first compound 0.5 µM): 0.817
relative viability ([8]; first compound 0.005 µM): 0.819
relative viability ([8]; first compound 0.01581 µM): 0.789
relative viability ([8]; first compound 0.05 µM): 0.952
relative viability ([8]; first compound 0.1581 µM): 0.802
relative viability ([8]; first compound 0.5 µM): 0.644
relative viability ([9]; first compound 0.005 µM): 0.98
relative viability ([9]; first compound 0.01581 µM): 1.04
relative viability ([9]; first compound 0.05 µM): 1.11
relative viability ([9]; first compound 0.1581 µM): 1.07
relative viability ([9]; first compound 0.5 µM): 1
relative viability ([10]; first compound 0.005 µM): 1.09
relative viability ([10]; first compound 0.01581 µM): 1.24
relative viability ([10]; first compound 0.05 µM): 1.13
relative viability ([10]; first compound 0.1581 µM): 1.17
relative viability ([10]; first compound 0.5 µM): 1.1
relative viability ([11]; first compound 0.005 µM): 1.1
relative viability ([11]; first compound 0.01581 µM): 1.2
relative viability ([11]; first compound 0.05 µM): 1.15
relative viability ([11]; first compound 0.1581 µM): 1.28
relative viability ([11]; first compound 0.5 µM): 1.53
relative viability ([12]; first compound 0.005 µM): 1.21
relative viability ([12]; first compound 0.01581 µM): 1.17
relative viability ([12]; first compound 0.05 µM): 1.22
relative viability ([12]; first compound 0.1581 µM): 1.17
relative viability ([12]; first compound 0.5 µM): 1.18
relative viability ([13]; first compound 0.005 µM): 0.343
relative viability ([13]; first compound 0.01581 µM): 0.49
relative viability ([13]; first compound 0.05 µM): 0.412
relative viability ([13]; first compound 0.5 µM): 0.551
relative viability ([14]; first compound 0.005 µM): 0.735
relative viability ([14]; first compound 0.01581 µM): 0.765
relative viability ([14]; first compound 0.05 µM): 0.847
relative viability ([14]; first compound 0.1581 µM): 0.735
relative viability ([14]; first compound 0.5 µM): 0.804
relative viability ([15]; first compound 0.005 µM): 0.753
relative viability ([15]; first compound 0.01581 µM): 0.718
relative viability ([15]; first compound 0.05 µM): 0.92
relative viability ([15]; first compound 0.1581 µM): 0.652
relative viability ([15]; first compound 0.5 µM): 0.938
relative viability ([16]; first compound 0.005 µM): 1.03
relative viability ([16]; first compound 0.01581 µM): 0.891
relative viability ([16]; first compound 0.05 µM): 0.754
relative viability ([16]; first compound 0.1581 µM): 0.9
relative viability ([16]; first compound 0.5 µM): 1.24
relative viability ([17]; first compound 0.005 µM): 0.35
relative viability ([17]; first compound 0.01581 µM): 0.48
relative viability ([17]; first compound 0.05 µM): 0.535
relative viability ([17]; first compound 0.1581 µM): 0.448
relative viability ([17]; first compound 0.5 µM): 0.427
relative viability ([18]; first compound 0.005 µM): 0.924
relative viability ([18]; first compound 0.01581 µM): 0.989
relative viability ([18]; first compound 0.05 µM): 0.988
relative viability ([18]; first compound 0.1581 µM): 0.737
relative viability ([18]; first compound 0.5 µM): 1.03
relative viability ([19]; first compound 0.005 µM): 0.412
relative viability ([19]; first compound 0.01581 µM): 0.288
relative viability ([19]; first compound 0.1581 µM): 0.413
relative viability ([19]; first compound 0.5 µM): 0.425
